Measurements published in patent publication US20250145570A1, “DHODH INHIBITOR POLYMORPH” (Aslan Pharmaceuticals Pte Ltd, priority 2022, published 2025).

Key:
[1] = Particle size distribution (PSD); format: physicochemical
[2] = Polymorph screening experiments (XRPD of returned solids); format: physicochemical; conditions: for XRPD after thermal cycling: 5-40° C., ~72 hours, THP and THF; for XRPD after 2-week slurry: 40° C.; for XRPD (Grind): fast evaporation at 100° C., post-grinding
Procedure: A solvent solubility screen was carried out on the farudodstat DSP polymorph (also referred to as CS-276-22 in the following examples) to determine its solubility in various solvents, and to gain an initial assessment of the polymorphic landscape. To ˜20 mg samples of predominantly amorphous farudodstat, aliquots (2×50 μL and then 100 μL) of the chosen solvents were added until dissolution was observed, or 2 mL had been added. The samples were manually agitated and heated to ˜40° C. in a block attached to a water bath in between each aliquot Clear solutions were uncapped and allowed to evaporate at room temperature. Any solids obtained from slurries and from evaporation were analysed by X-ray powder diffraction (XRPD).
16×20 mg of the farudodstat DSP polymorph sample was weighed into 2 mL bead mill vials and was milled for 1.5 hrs for amorphization. Next, 5 μL of appropriate solvents (see Table 6) were added to each sample. The samples were then bead milled using the following procedure: • 1. 2 stainless steel beads were added to each vial. • 2. 4500 rpm • 3. 10×90 s cycles • 4. 10 s hold between each cycle • 5. Repeated 4× to give 1 hr milling time
16×20 mg of farudodstat sample was first weighed into 2 mL bead mill vials and was milled to prepare amorphous material. To all the […] bead milled samples, appropriate solvents (see Table 6) were added in 100 μL aliquots until a mobile slurry was obtained without any dissolution observed. Between additions, the samples were stirred at 40° C. Samples were then stirred, and temperature cycled between 5-40° C. (0.1° C./min heating/cooling rate, 1 hour hold at each temperature) for ˜72 hours.
After 48 hours, samples were checked. If necessary, additional solids added. Non-mobile solid in solution samples were agitated using a spatula until a mobile slurry was obtained. Slurries were isolated by centrifugation ([…] nylon filters) and the solids analysed by XRPD. Post XRPD analysis, the XRPD plate was dried at 40° C. under vacuum for 48 hours and the solids reanalysed by XRPD to give an indication of form stability.
The saturate isolated from the previous thermal cycling experiment was left to evaporate at room temperature. Any solids returned from evaporation were analysed by XRPD.
16×20 mg of farudodstat sample was weighed into 2 mL bead mill vials and then milled to prepare amorphous material. To the bead milled sample, appropriate solvent was added in 100 μL aliquots until a mobile slurry was obtained without any dissolution observed. Between additions, the samples were stirred at 50° C. and 100° C. depending upon the boiling point of the solvent to dissolve the API in the solvent system. Samples were checked and slurries were isolated by centrifugation ([…] Nylon filters) and the saturates were put in an HPLC vials. Next, the vials were uncapped and were left to evaporate at 50° C. using a water bath. Finally, after the complete evaporation of solvent, the remaining solid were analysed by XRPD to check for appearance of any new patterns.
20 mg×5 of farudodstat sample was weighed into 2 ml bead mill vials and milled to prepare amorphous material. To the bead milled sample, appropriate solvent was added in 100 μL aliquots until a mobile slurry was obtained without any dissolution observed. Between additions, the samples were stirred at 100° C. to dissolve the API in the solvent system. Samples were checked and slurries were isolated by centrifugation (0.22 μm Nylon filters) and the saturates were put in an HPLC vials. The vials were then uncapped and were left to evaporate at 100° C. using a sand bath. After the complete evaporation of solvent, the remaining solid were analysed by XRPD to check for appearance of any new patterns.
20 mg×16 farudodstat sample was weighed into 2 ml bead mill vials and milled to prepare amorphous material. The appropriate solvent was added in 100 μL aliquots until a mobile slurry was obtained without any dissolution observed. […]

SMILES: COc1cccc(-c2cc(F)c(Nc3ncccc3C(=O)O)c(F)c2)c1 [1412NC0160A-02]
- Particle Size D10 [1]: 0.90 μm
- Particle Size D50 [1]: 3.46 μm
- Particle Size D90 [1]: 45.05 μm
- Particle Size MV [1]: 13.27 μm

SMILES: COc1cccc(-c2cc(F)c(Nc3ncccc3C(=O)O)c(F)c2)c1 [1412NC0160A-01]
- Particle Size D10 [1]: 32.34 μm
- Particle Size D50 [1]: 160.95 μm
- Particle Size D90 [1]: 238.22 μm
- Particle Size MV [1]: 151.47 μm

SMILES: COc1cccc(-c2cc(F)c(Nc3ncccc3C(=O)O)c(F)c2)c1 [1302NC0160A-01]
- Particle Size D10 [1]: 2.54 μm
- Particle Size D50 [1]: 5.97 μm
- Particle Size D90 [1]: 11.79 μm
- Particle Size MV [1]: 6.70 μm

SMILES: COc1cccc(-c2cc(F)c(Nc3ncccc3C(=O)O)c(F)c2)c1 [farudodstat, 2-(3,5-difluoro-3′-methoxybiphenyl-4-ylamino) nicotinic acid]
- XRPD after room temperature evaporation ([2]; 1,1,1.3.3.3-Hexafluoro-2-Propanol, 2-Methyl THF, DMF, THF and THP): returned to Pattern 1
- XRPD after room temperature evaporation ([2]; 1,1-Dimethoxymethane, 1,3-Dioxolane, 1,4-Dioxane): showed preferred orientation of Pattern 1 but returned to Pattern 1 after grinding
- XRPD after 2-week slurry then fast evaporation at 100° C. ([2]; 1,1-Dimethoxymethane, 1,3-Dioxolane, 2-Ethoxyethanol, 1,1,1.3.3.3-Hexafluoro-2-Propanol, DMA, DMF and NMP): showed preferred orientation. However, post-grinding returned these to Pattern 1
- XRPD of solids, solvent solubility assessment ([2]; 1,1-Dimethoxymethane, 1,4-Dioxane, 2-Ethoxyethanol, 1,1,1,3,3,3-Hexafluoro-2-Propanol, 2-Methyl THF, Benzyl Alcohol): remained amorphous
- XRPD after fast evaporation at 50° C. ([2]; 1,1-dimethoxymethane and 2-propanol): showed amorphous pattern
- XRPD after fast evaporation at 50° C. ([2]; 1,3-dioxlane, 1,4-dioxane): showed preferred orientation
- XRPD after fast evaporation at 50° C. ([2]; 2-Ethoxyethanol, new peak at 21.1° 2θ): potential new pattern
- XRPD of solids, solvent solubility assessment ([2]; 2-propanol, 48% Methanol:52% Water, 93% Ethanol:7% Water, 98.5% Ethanol:1.5% Water, Methanol, tert-Butylmethyl Ether): returned to Pattern 1
- XRPD after thermal cycling ([2]; 1,4-dioxane): remained semi-crystalline
- XRPD after thermal cycling ([2]; solvents other than 1,4-dioxane): returned to Pattern 1
- XRPD after 2-week slurry ([2]; 93% Ethanol:7% Water, 48% Methanol:52% Water, 2-Propanol, 2-Methyl THF): returned to Pattern 1
- XRPD after 2-week slurry ([2]; THF and THP): additional peaks with Pattern 1 at 8.1° 2θ (Pattern 1+)
- XRPD after fast evaporation at 50° C. ([2]; DMF): pattern 1 with significant preferred orientation
- XRPD after anti-solvent addition + fast cool ([2]; MEK as anti-solvent in 1,4-dioxane, freezer 72 hrs): consistent with Pattern 1
- XRPD after fast evaporation at 50° C. ([2]; THP, THF, 2-methyl THF and 1,1,1.3.3.3-Hexafluoro-2-Propanol): returned to Pattern 1
- XRPD after anti-solvent addition ([2]; acetone as anti-solvent, 1,1,1.3.3.3-Hexafluoro-2-Propanol): returned to Pattern 1 with additional peaks
- XRPD after solvent drop grinding ([2]; all 16 solvent systems): returned to pattern 1
- XRPD after bead milling ([2]; bead milling): less crystalline material
- XRPD after fast cooling ([2]; crash cooling of 1,3-dioxolane saturate, freezer 72 hrs): preferred orientation of Pattern 1
- XRPD of solids, solvent solubility assessment ([2]; evaporation of clear solution of THF and THP): showed preferred orientation, but later returned to Pattern 1 post grinding
- XRPD (Grind) ([2]; N,N′-Dimethylacetamide): Pattern 1
- XRPD (Grind) ([2]; N,N′-Dimethylformamide): Pattern 1
- XRPD after anti-solvent addition at 50° C. ([2]; water addition to all the 16 saturates): returned to Pattern 1
- XRPD after anti-solvent addition ([2]; water, room temperature, except 2-Methyl THF, 2-Propanol, 48% Methanol:52% Water, 93% Ethanol:7% Water, Benzyl Alcohol (clear solutions)): returned to Pattern 1
